These results are taken from patent US20230076415A1, “METHODS AND COMPOSITIONS FOR TREATING MELANOMA” (INSERM (INSTITUT NATIONAL DE LA SANTÉ ET DE LA RECHERCHE …, priority 2020, published 2023).

Broadly, the IC50 is the concentration that inhibits the measured activity by half.

Test [1] deals with A375 cells. Briefly: Survival analysis (crystal violet staining) of A375 cells treated with 8TQ. It counts as cell-based. The note with it: Homo sapiens, A-375, increasing doses of 8TQ, 72h, read-out: calculated IC50 for 8TQ. The method, then:
(§1) FIG. 3. Pharmacological inhibition of PSMD14 impairs melanoma cell survival. A) Survival analysis performed on A375 cells treated with vehicle or increasing doses of 8TQ (0.27, 0.9, 3 μM). After 72h, cells were stained with crystal violet. Right, cell viability was quantified on lysates by analyzing crystal violet staining at 595 nm. Histograms represent the mean±SD of three independent experiments in duplicate (***P<0.001; ns, non significant). B) Effect of PSMD14 inhibition on melanoma cell viability. A375 cells were treated with vehicle or increasing doses of 8TQ (0.27, 0.9, 3 μM). After 72h, cells were stained with Annexin V-FITC and DAPI and analysed by flow cytometry. Histograms show the percentage of cell death (Annexin V and DAPI positive cells) (mean±SEM, n=3). The calculated mean IC50±sem is shown. (** P<0.005, ***P<0.001). C) A subset of melanoma cells was treated with increasing doses of 8TQ. After 72h, cells were labeled and analyzed as in b). The corresponding IC50 of 8TQ was determined by measuring cell viability. Box plots indicating the upper/lower quartile and the median with whiskers from min to max values from 2 experiments performed in triplicate.
After treatment, cells were fixed in PFA 3% during 20 min, washed with PBS and stained with crystal violet 0.4% in ethanol 20% for 30 min. After washing, crystal violet was solubilized from fixed cells. […]

The test system of test [2] is A375RIV, M229R, M238R, M249R and A375DDR melanoma cells. Description: Viability of BRAFi- and BRAFi/MEKi-resistant melanoma cells treated with 8TQ. It counts as cell-based, human. The method, then: (§2) FIG. 5. Targeting PSMD14 overcomes resistance to MAPK pathway inhibition. A) Melanoma cell lines resistant to BRAFi (A375RIV, M229R, M238R and M249R) or double resistant to BRAFi and MEKi (A375DDR) were transfected with siCTRL or siPSMD14 #1. After 72h, cell colonies were stained with crystal violet and the absorbance at 595 nm was measured. Box plots show the upper/lower quartile and the median with whiskers from min to max values (n=3, ***P<0.001). B) The above panel of melanoma cells was treated with increasing doses of 8TQ. After 72h, cells were labeled and analyzed. The corresponding IC50 of 8TQ was determined. Box plots indicate the upper/lower quartile and the median with whiskers from min to max values from 2 experiments performed in triplicate. C) 1×10^6 A375Riv human melanoma cells were implanted into both flanks of nude mice. After 2 days, mice were injected i.p every day with 8TQ (10 mg/kg) or vehicle. The tumor size was measured with a caliper and the tumor volume was determined. Data shown are mean±SD of tumor volume (n=12; ***, ***P<0.001, 2way ANOVA).
(§3) After 24 to 48h of treatment, cell viability was evaluated by flow cytometry following staining with Annexin-V-FITC and propidium iodide (PI) (ThermoFisher Scientific) as previously described (27). The percentage of dead cells (Annexin-V-FITC+ and PI+ cells) was then determined. […]

Test [3] concerns 501Mel and A375 melanoma cells. Briefly: Phosphorylated H2AX after 8TQ. The following applies: increased doses of 8TQ, 48h, data not shown. It counts as cell-based, human. On the procedure: For phospho-H2AX (pH2AX) foci staining, cells grown on coverslips or culture dishes were fixed with 4% paraformaldehyde and permeabilized in 50 mM Tris-HCl, pH 7.4, 150 mM NaCl, 0.3% Triton X-100 for 1 h at 4° C. Cells were then blocked in 50 mM Tris-HCl, pH 7.4, 150 mM NaCl, 0.03% Triton X-100, 1% BSA for 1 h at 37° C., and stained with anti-phospho-Ser139 H2AX (1:1000, Merck Millipore #05-636) at 4° C. overnight. After extensive washings, cells were stained with Alexa Fluor TexasRed-conjugated secondary antibodies and 10 μg/ml DAPI for 1 h at room temperature. After washing, cells were mounted with ProLong Gold Antifade Mounting Oil (Thermo Fischer Scientific). The percentage of cells positive for phospho-H2AX foci was determined by analyzing 200 randomly chosen cells and the foci-positive cells were defined as nuclei with at least one large focus or a granular pattern of fluorescence.

Test [4] relates to A375Riv human melanoma cells. Briefly: BRAFi-resistant A375Riv xenografts. Format: in vivo. The note with it: A375Riv xenografts in nude mice, 8TQ 10 mg/kg i.p. vs vehicle. The method, then:
as §2
All mouse experiments were carried out in accordance with the Institutional Animal Care and the local ethics committee (CIEPAL-Azur agreement NCE/2018-509). […] The tumor size was measured with a caliper and the tumor volume was determined using the formula: Volume=(length×Width2)/2. […]

In test [5] the test system is Yumm1.7 murine melanoma cells (BrafV600E/Pten null/cdkn2a null). Description: Yumm1.7 syngeneic melanoma model. Format: in vivo, C57Bl/6J mice. On the procedure: (§4) FIG. 4. The PSMD14 inhibitor 8TQ inhibits tumor growth in melanoma syngeneic models. A) 2×10^5 murine melanoma cells Yumm1.7 (derived from BrafV600E/Pten null/cdkn2a null mice) were subcutaneously inoculated into both flanks of 6-week old C57Bl/6J female mice. After one week, mice were injected i.p 3 times per week with 8TQ (10 mg/kg) or vehicle. The tumor size was measured with a caliper and the tumor volume was determined. Data shown are mean±SD of tumor volume (n=12; ***, ***P<0.001, 2way ANOVA). B) 4×105 murine melanoma MaNRas (NRasQ61K) were subcutaneously injected into both flanks of 6-week old C57Bl/6J female mice. After two weeks, mice were injected i.p every two days with 8TQ (10 mg/kg) or vehicle. The tumor size was measured with a caliper and the tumor volume was determined. Data shown are mean±sd of tumor volume (n=12; ***, ***P<0.001, 2way ANOVA).
Slices (4 μm) from paraffin-embedded tumors sections were Tissue sections were processed for dewaxing, rehydration and antigenic heat unmasking using the PT Module Lab Vision™ (ThermoFisher Scientific) according to the manufacturer's instructions. Tissue sections were then labelled with primary antibodies diluted in 1% BSA (wt/vol) followed by standard avidin-biotin-peroxidase staining (Vector Laboratories) using the automated staining system Myreva SS30 (Microm Microtech, France). Primary antibodies were as follows: phospho-H2AX (Merck Millipore), Ki67 (Agilent Dako), cleaved caspase 3 (Cell Signaling Technology).
All mouse experiments were carried out in accordance with the Institutional Animal Care and the local ethics committee (CIEPAL-Azur agreement NCE/2018-509). The animals were maintained on a 12h light/dark cycle in a temperature-controlled facility at 22° C. and were provided with free access to food (standard laboratory chow diet from UAR). For melanoma xenografts, 2×106 BRAF inhibitor resistant A375Riv human melanoma cells were subcutaneously implanted into both flanks of 6 week old athymic nude nu/nu female mice (Envigo). For melanoma syngeneic models, 2 to 4 105 of Yumm1.7 or MaNras murine melanoma cells were subcutaneously inoculated into 6 week old C57Bl/6J female mice (Envigo). When tumors became palpable (0.05 to 0.1 cm3), mice were injected intraperitoneally once every other day with vehicle or 10 mgkg-1 8TQ in a 90:9:1 (v/v/v) mixture of Labrafil, dimethylacetamide, and Tween 80. The tumor size was measured with a caliper and the tumor volume was determined using the formula: Volume=(length×Width2)/2. At the end of the experiment, mice were sacrificed and tumors dissected, weighed, fixed and embedded in paraffin for IHC analysis.

Test [6] has as its system human (M099, M029, Sbcl2, 501Mel, WM9 and MEWO) and murine (Yumm1.7 and MaNras) melanoma cell lines. Description: IC50 of 8TQ on a collection of melanoma cell lines and short-term cultures. It counts as cell-based. The method, then:
as §1, with “Box plots indicating the upper/lower quartile and the median with whiskers from min to max values from 2 experiments performed in triplicate.” left out
as §3

Test [7] deals with MaNRas murine melanoma cells (NRasQ61K). Briefly: MaNRas syngeneic melanoma model. It counts as in vivo. The note with it: 8TQ 10 mg/kg i.p. vs vehicle, C57Bl/6J mice. The method, then: as §4
All mouse experiments were carried out in accordance with the Institutional Animal Care and the local ethics committee (CIEPAL-Azur agreement NCE/2018-509). The animals were maintained on a 12h light/dark cycle in a temperature-controlled facility at 22° C. and were provided with free access to food (standard laboratory chow diet from UAR). […] The tumor size was measured with a caliper and the tumor volume was determined using the formula: Volume=(length×Width2)/2. […]

Test [8] deals with A375 cells. Description: Cell death by Annexin V-FITC/DAPI flow cytometry. It counts as cell-based, human. The note with it: 8TQ 0.27, 0.9, 3 μM, 72h. On the procedure: FIG. 2. PSMD14 depletion has a potent cytotoxic effect on melanoma cells. A) Experimental validation of the siDUB screening on melanoma cell proliferation. 501Mel and A375 melanoma cells were plated 10,000 cells/well in a 24-well plate and transfected with a control siRNA (siCTRL) or 3 different siRNA sequences targeting PSMD14 (siPSMD14 #1, #2 and #3). Cell confluence was imaged for 48 h using the IncuCyte Zoom live imaging system. Curves represent normalized cell proliferation of each siRNA relative to siCTRL. Data are the mean±SEM (n=3). ***P<0.001, 2-way ANOVA analysis. B) Colony survival analysis after PSMD14 depletion (siPSMD14 #1, #2 and #3) compared to control siRNA (siCTRL). 501Mel and A375 cells were transfected with siRNAs, re-seeded at 2,000 cells/well and grown for 1 week. Colonies were stained with crystal violet. […] Box plots show the mean±SEM of crystal violet quantification relative to siCTRL (n=3, ***P<0.001.). […] After 72h, cells were labeled with Annexin V-FITC and DAPI and analysed by flow cytometry. […]
FIG. 3. […] Right, cell viability was quantified on lysates by analyzing crystal violet staining at 595 nm. […] After 72h, cells were stained with Annexin V-FITC and DAPI and analysed by flow cytometry. […] The calculated mean IC50±sem is shown. […] After 72h, cells were labeled and analyzed as in b). The corresponding IC50 of 8TQ was determined by measuring cell viability. […]
In general terms: In flow cytometry, cells or beads pass a laser one at a time.

Test [9] relates to A375 cells. Description: Western blot analysis of A375 cells. Format: cell-based, human. The following applies: data not shown. The source says: Culture reagents and DAPI were purchased from Thermo Fischer Scientific. Vemurafenib (PLX4032) and Trametinib (GSK1120212) were from Selleckchem. Chemicals, cycloheximide (CHX), 8TQ and puromycin were from Merck Millipore. The antibodies used for western blotting were as follow: PSMD14 (Generon), HSP90, p53 (Santa Cruz Biotechnology), K48-linkage specific polyubiquitin (D9D5), p21, CDK2, PARP, cleaved caspase 3, phospho-Thr202/Tyr204 Erk1/2 (Cell Signaling Technology), phospho-Ser139 H2AX (BioLegend). Alexa Fluor TexasRed-conjugated secondary antibodies were from ThermoFisher Scientific.
(In western blotting, separated proteins are transferred to a membrane and probed.)

[10] abbreviates: Yumm1.7 tumors, vs vehicle, data not shown.
Where [11] appears, read: immunostaining on tumor sections, data not shown.

Take `Sc1cccc2cccnc12` [8TQ, quinoline-8-thiol]: the 50% inhibitory concentration (IC50) in [1] is 660 nM. The “viability of BRAFi- and BRAFi/MEKi-resistant cells” value in test [2] (doses of 8TQ, 72h) is on record as “potently decreased”. Besides, the “IC50 of 8TQ” value in test [2] (resistant cells compared with parental counterparts) is “in the same μM range”. Besides, the “expression of phosphorylated H2AX” value in test [3] is given as “elevated expression”. The tumor development result in [4] is on record as “dramatically abrogated”. Moreover, in test [5] (8TQ 10 mg/kg i.p. vs vehicle, C57Bl/6J mice), the Yumm1.7 tumor growth result is listed as “significantly decreased”. Also, in test [5] (setting [10]), the “tumor size at the experiment endpoint” value is “markedly reduced” and the “tumor weight at the experiment endpoint” value is recorded as “markedly reduced”. In test [5] (setting [11]), the “staining of the apoptosis marker cleaved caspase 3” value is “increased staining” and the “staining of the cell proliferation marker Ki67” value is “decreased staining”. Further, the IC50 in test [6] (collection of human and murine melanoma cell lines and short-term cultures, 72h) was 250 to 750 nM. For the same compound, in test [6] (irrespective of the mutational status or the disease stage), the melanoma cell viability result is given as “markedly inhibited”. Also, in test [7], the MaNRAS tumor growth result was “significantly decreased”. For the same compound, the “apoptotic cell death (Annexin V-FITC/DAPI staining)” value in [8] is “dose-dependent increase”. In [9], the “accumulation of poly-ubiquitinated proteins” value is reported as “induced the accumulation”, the “expression of cleaved PARP” value was “induced” and the “expression of cleaved caspase-3” value was “induced”.
